Assay results published in patent publication US10174037B2, “Dihydropyrazolopyrimidinone compounds as PDE2 inhibitors” (Merck Sharp & Dohme Corp., priority 2015, dated 2019).

Key:
[1] = molecular target: human PDE2A1 (Homo sapiens (Human), UniProt O00408); assay: PDE selectivity IMAP FP assay, human PDE2A1; assay type: biochemical; settings: Human PDE2; Lab B; read-out: Human PDE2 Ki (nM) Lab B
Summary of the method: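 Compound titrations run against PDE2 in Tris HCl pH 7.2 buffer with MgCl2 and DTT for 60 min at room temperature, using 50 nM FAM-cAMP plus 1000 nM cGMP and enzyme giving 20% conversion.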

[2] = molecular target: Rhesus PDE2A3 (Macaca mulatta, UniProt B3VTJ2); assay: PDE2 fluorescence polarization (IMAP FP) assay, rhesus PDE2A3; assay type: biochemical, rhesus macaque; settings: Lab B, read-out: Rhesus PDE2 Ki (nM) Lab B
Rhesus PDE2A3, sequence (B3VTJ2 1-941): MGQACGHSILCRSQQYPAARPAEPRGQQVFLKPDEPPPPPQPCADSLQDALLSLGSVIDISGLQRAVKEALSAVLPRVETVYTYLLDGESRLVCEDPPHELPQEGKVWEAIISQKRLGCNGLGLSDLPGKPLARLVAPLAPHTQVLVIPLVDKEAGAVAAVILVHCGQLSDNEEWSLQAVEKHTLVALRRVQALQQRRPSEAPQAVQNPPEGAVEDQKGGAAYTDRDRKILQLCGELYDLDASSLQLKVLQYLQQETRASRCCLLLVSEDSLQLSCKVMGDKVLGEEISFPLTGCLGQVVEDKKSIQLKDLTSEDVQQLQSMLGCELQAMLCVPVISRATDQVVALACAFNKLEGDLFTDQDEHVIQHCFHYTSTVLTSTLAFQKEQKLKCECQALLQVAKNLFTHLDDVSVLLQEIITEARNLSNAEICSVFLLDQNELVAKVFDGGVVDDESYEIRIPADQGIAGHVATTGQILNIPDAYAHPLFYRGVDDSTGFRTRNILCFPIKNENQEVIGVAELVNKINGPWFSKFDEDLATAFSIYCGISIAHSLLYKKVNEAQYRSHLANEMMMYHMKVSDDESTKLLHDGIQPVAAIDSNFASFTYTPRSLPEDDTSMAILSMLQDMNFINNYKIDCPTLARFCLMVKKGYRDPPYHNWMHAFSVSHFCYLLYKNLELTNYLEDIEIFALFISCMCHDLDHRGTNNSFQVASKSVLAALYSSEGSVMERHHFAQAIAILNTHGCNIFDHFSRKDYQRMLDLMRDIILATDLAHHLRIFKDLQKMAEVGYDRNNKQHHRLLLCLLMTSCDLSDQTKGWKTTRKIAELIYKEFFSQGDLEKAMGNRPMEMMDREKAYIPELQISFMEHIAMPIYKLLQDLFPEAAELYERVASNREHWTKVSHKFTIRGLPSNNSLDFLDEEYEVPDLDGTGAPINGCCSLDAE

human PDE2A1, sequence (O00408 other isoform, or with tags, fused parts or gaps): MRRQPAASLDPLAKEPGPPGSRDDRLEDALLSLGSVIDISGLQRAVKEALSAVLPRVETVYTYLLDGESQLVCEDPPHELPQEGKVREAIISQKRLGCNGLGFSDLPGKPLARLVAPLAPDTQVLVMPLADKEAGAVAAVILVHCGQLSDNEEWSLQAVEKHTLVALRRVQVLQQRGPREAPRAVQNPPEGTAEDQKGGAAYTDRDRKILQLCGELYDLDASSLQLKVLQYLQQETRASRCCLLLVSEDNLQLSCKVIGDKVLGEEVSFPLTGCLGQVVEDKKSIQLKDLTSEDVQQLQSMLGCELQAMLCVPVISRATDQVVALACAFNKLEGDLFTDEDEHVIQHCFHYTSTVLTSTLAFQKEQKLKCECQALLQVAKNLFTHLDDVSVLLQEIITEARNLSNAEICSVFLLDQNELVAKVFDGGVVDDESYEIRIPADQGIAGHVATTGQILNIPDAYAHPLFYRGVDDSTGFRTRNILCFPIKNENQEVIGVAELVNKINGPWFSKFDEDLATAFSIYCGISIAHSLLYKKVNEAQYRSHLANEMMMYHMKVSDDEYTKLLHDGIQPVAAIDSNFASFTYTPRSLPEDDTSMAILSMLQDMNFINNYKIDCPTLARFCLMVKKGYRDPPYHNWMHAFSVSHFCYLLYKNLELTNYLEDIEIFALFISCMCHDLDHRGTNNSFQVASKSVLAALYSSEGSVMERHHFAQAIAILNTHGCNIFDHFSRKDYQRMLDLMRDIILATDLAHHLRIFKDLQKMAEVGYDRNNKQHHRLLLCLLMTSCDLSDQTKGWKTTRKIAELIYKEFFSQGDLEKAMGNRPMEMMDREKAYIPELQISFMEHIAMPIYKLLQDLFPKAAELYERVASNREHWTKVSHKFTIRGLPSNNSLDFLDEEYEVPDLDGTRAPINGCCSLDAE

SMILES	Ki [1]	Ki [2]
CC(C)c1ccc(C(C2CC2)n2nc(CF)c3c(=O)[nH]c(N(C)C)nc32)cc1 (single isomer, unassigned) [Example 183, (R)- or (S)-1-(Cyclopropyl(4-isopropylphenyl)methyl)-6-(dimethylamino)-3-(fluoromethyl)-1H-pyrazolo[3,4-d]pyrimidin-4(5H)-one]	0.064 nM	0.082 nM
CN(C)c1nc2c(c(CF)nn2C(c2ccc(OC(F)F)c(F)c2)C2CC2)c(=O)[nH]1 (single isomer, unassigned) [Example 189, (S)- or (R)-1-(Cyclopropyl(4-(difluoromethoxy)-3-fluorophenyl)methyl)-6-(dimethylamino)-3-(fluoromethyl)-1H-pyrazolo[3,4-d]pyrimidin-4(5H)-one]	0.35 nM	0.62 nM
CC(c1ccc(C(F)F)cc1)n1nc(CF)c2c(=O)[nH]c(N(C)C)nc21 (single isomer, unassigned) [Example 191, (S)- or (R)-1-(1-(4-(Difluoromethyl)phenyl)ethyl)-6-(dimethylamino)-3-(fluoromethyl)-1H-pyrazolo[3,4-d]pyrimidin-4(5H)-one]	0.38 nM	0.42 nM
CN(C)c1nc2c(c(CF)nn2C(c2ccc(CC(F)(F)F)cc2)C2CC2)c(=O)[nH]1 (single isomer, unassigned) [Example 192, (R)- or (S)-1-(Cyclopropyl(4-(2,2,2-trifluoroethyl)phenyl)methyl)-6-(dimethylamino)-3-(fluoromethyl)-1H-pyrazolo[3,4-d]pyrimidin-4(5H)-one]	0.41 nM	0.42 nM
CN(C)c1nc2c(c(CF)nn2C(c2ccc(CC(F)(F)F)cc2)C2CC2)c(=O)[nH]1 (single isomer, unassigned) [Example 193, (S)- or (R)-1-(Cyclopropyl(4-(2,2.2-trifluoroethyl)phenyl)methyl)-6-(dimethylamino)-3-(fluoromethyl)-1H-pyrazolo[3,4-d]pyrimidin-4(5H)-one]	0.39 nM	0.41 nM
CC(c1ccc(C(C)(F)F)cc1)n1nc(CF)c2c(=O)[nH]c(N(C)C)nc21 (single isomer, unassigned) [Example 195, (S)- or (R)-1-(1-(4-(1,1-Difluoroethyl)phenyl)ethyl)-6-(dimethylamino)-3-(fluoromethyl)-1H-pyrazolo[3,4-d]pyrimidin-4(5H)-one]	0.17 nM	0.14 nM
CN(C)c1nc2c(c(CF)nn2C(c2ccc(C(F)(F)F)cc2F)C2CC2)c(=O)[nH]1 (single isomer, unassigned) [Example 203, (S)- or (R)-1-(Cyclopropyl(2-fluoro-4-(trifluoromethyl)phenyl)methyl)-6-(dimethylamino)-3-(fluoromethyl)-1H-pyrazolo[3,4-d]pyrimidin-4(5H)-one]	0.61 nM	0.74 nM
CC(C)C(c1ccc(C(C)(F)F)cc1)n1nc(CF)c2c(=O)[nH]c(N(C)C)nc21 (single isomer, unassigned) [Example 206, (R)- or (S)-l-(1-(4-(1,1-Difluoroethyl)phenyl)-2-methylpropyl)-6-(dimethylamino)-3-(fluoromethyl)-1H-pyrazolo[3,4-d]pyrimidin-4(5H)-one]	0.37 nM	0.51 nM

Other lines, results leading:

Ki [1]	Ki [2]	SMILES
0.19 nM	0.24 nM	CC(C)C(c1ccc(OC(F)F)cc1)n1nc(CF)c2c(=O)[nH]c(N(C)C)nc21 (single isomer, unassigned) [Example 184, (R)- or (S)-1-(1-(4-(Difluoromethoxy)phenyl)-2-methylpropyl)-6-(dimethylamino)-3-(fluoromethyl)-1H-pyrazolo[3,4-d]pyrimidin-4(5H)-one]
0.12 nM	0.16 nM	CC(C)C(c1ccc(OC(F)F)cc1)n1nc(CF)c2c(=O)[nH]c(N(C)C)nc21 (single isomer, unassigned) [Example 185, (S)- or (R)-1-(1-(4-(Difluoromethoxy)phenyl)-2-methylpropyl)-6-(dimethylamino)-3-(fluoromethyl)-1H-pyrazolo[3,4-d]pyrimidin-4(5H)-one]
0.13 nM	0.14 nM	CC(c1ccc(C(F)(F)F)cc1F)n1nc(CF)c2c(=O)[nH]c(N(C)C)nc21 (single isomer, unassigned) [Example 186, (R)- or (S)-6-(Dimethylamino)-1-(1-(2-fluoro-4-(trifluoromethyl)phenyl)ethyl)-3-(fluoromethyl)-1H-pyrazolo[3,4-d]pyrimidin-4(5H)-one]
0.35 nM	0.41 nM	CN(C)c1nc2c(c(CF)nn2C(c2ccc(OC(F)F)c(F)c2)C2CC2)c(=O)[nH]1 (single isomer, unassigned) [Example 188, (R)- or (S)-1-(Cyclopropyl(4-(difluoromethoxy)-3-fluorophenyl)methyl)-6-(dimethylamino)-3-(fluoromethyl)-1H-pyrazolo[3,4-d]pyrimidin-4(5H)-one]
0.31 nM	0.59 nM	CC(c1ccc(C(F)F)c(F)c1)n1nc(CF)c2c(=O)[nH]c(N(C)C)nc21 (single isomer, unassigned) [Example 196, (R)- or (S)-1-(1-(4-(Difluoromethyl)-3-fluorophenyl)ethyl)-6-(dimethylamino)-3-(fluoromethyl)-1H-pyrazolo[3,4-d]pyrimidin-4(5H)-one]
0.048 nM	0.068 nM	CCC(c1ccc(C(F)(F)F)cc1F)n1nc(CF)c2c(=O)[nH]c(N(C)C)nc21 (single isomer, unassigned) [Example 198, (R)- or (S)-6-(Dimethylamino)-1-(1-(2-fluoro-4-(trifluoromethyl)phenyl)propyl)-3-(fluoromethyl)-1H-pyrazolo[3,4-d]pyrimidin-4(5H)-one]
0.041 nM	0.07 nM	CC(C)C(c1ccc(C(F)(F)F)cc1F)n1nc(CF)c2c(=O)[nH]c(N(C)C)nc21 (single isomer, unassigned) [Example 200, (R)- or (S)-6-(Dimethylamino)-1-(1-(2-fluoro-4-(trifluoromethyl)phenyl)-2-methylpropyl)-3-(fluoromethyl)-1H-pyrazolo[3,4-d]pyrimidin-4(5H)-one]
0.042 nM	0.058 nM	CN(C)c1nc2c(c(CF)nn2C(c2ccc(C(F)(F)F)cc2F)C2CC2)c(=O)[nH]1 (single isomer, unassigned) [Example 202, (R)- or (S)-1-(Cyclopropyl(2-fluoro-4-(trifluoromethyl)phenyl)methyl)-6-(dimethylamino)-3-(fluoromethyl)-1H-pyrazolo[3,4-d]pyrimidin-4(5H)-one]
0.038 nM	0.072 nM	CCC(c1ccc(C(C)(F)F)cc1)n1nc(CF)c2c(=O)[nH]c(N(C)C)nc21 (single isomer, unassigned) [Example 205, (S)- or (R)-1-(1-(4-(1,1-Difluoroethyl)phenyl)propyl)-6-(dimethylamino)-3-(fluoromethyl)-1H-pyrazolo[3,4-d]pyrimidin-4(5H)-one]
0.03 nM	0.043 nM	CC(C)C(c1ccc(C(C)(F)F)cc1)n1nc(CF)c2c(=O)[nH]c(N(C)C)nc21 (single isomer, unassigned) [Example 207, (S)- or (R)-1-(1-(4-(1,1-Difluoroethyl)phenyl)-2-methylpropyl)-6-(dimethylamino)-3-(fluoromethyl)-1H-pyrazolo[3,4-d]pyrimidin-4(5H)-one]
